In article PMC10821025, “Bioprospection of Tenellins Produced by the Entomopathogenic Fungus Beauveria neobassiana” (Journal of Fungi, 2024):
Converted amounts (≈) assume the structure as drawn.

Legend:
[1] = tested on: mouse fibroblasts (L-929); experiment: Cytotoxicity assay, L929; assay type: cell-based; details: L929 (fibroblast), 5 days of incubation
Method: (§1) The cytotoxicity of isolated compounds was determined as previously described over a concentration range between […] against two mammalian cell lines: mouse fibroblasts (L-929) and human endocervical adenocarcinoma (KB-3.1). […] Following 5 days of incubation, we determined the minimum concentration of the tested compounds required to achieve 50% growth inhibition, expressed as IC50 values.

[2] = tested on: Chromobacterium violaceum [DSM 30191]; experiment: Serial dilution assay (MIC); assay type: cell-based; details: DSM30191, read-out: MIC
Method: (§2) All isolated compounds were assessed for their antimicrobial activity using a serial dilution assay over a concentration range from 67 to 0.5 µg/mL following the previously described protocols. In brief, the antimicrobial activity of all isolated metabolites was assessed by determining their minimum inhibitory concentration (MIC) against a range of different pathogens, including five fungal species: Candida albicans [DSM 1665], Mucor hiemalis [DSM 2656], Schizosaccharomyces pombe [DSM 70572], Rhodotorula glutinis [DSM 10134], and Wickerhamomyces anomalus [DSM 6766], as well as various Gram-positive: Staphylococcus aureus [DSM 346], Bacillus subtilis [DSM 10], Mycolicibacterium smegmatis [ATCC 700084], and Gram-negative bacteria: Acinetobacter baumanii [DSM 30008], Escherichia coli [DSM 1116], Chromobacterium violaceum [DSM 30191], and Pseudomonas aeruginosa [PA14]. In our experiments, gentamicin served as the positive control against most bacteria, while nystatin acted as the positive control against all fungi. For specific microorganisms, namely A. baumannii, B. subtilis, and M. smegmatis, ciprofloxacin, oxytetracycline, and kanamycin were used as positive controls, respectively.

[3] = tested on: Schizosaccharomyces pombe [DSM 70572]; experiment: Serial dilution assay (MIC); assay type: cell-based; details: DSM70572
Method: as §2

[4] = tested on: Mucor hiemalis [DSM 2656]; experiment: Serial dilution assay (MIC); assay type: cell-based; details: DSM2656, read-out: MIC
Method: as §2

[5] = tested on: Mycolicibacterium smegmatis [ATCC 700084]; experiment: Serial dilution assay (MIC); assay type: cell-based; details: Mycolicibacterium smegmatis, ATCC700084; Mycobacterium smegmatis; read-out: MIC
Method: as §2

[6] = tested on: Acinetobacter baumanii [DSM 30008]; experiment: Serial dilution assay (MIC); assay type: cell-based; details: Acinetobacter baumannii, DSM30008
Method: as §2

[7] = tested on: Pseudomonas aeruginosa [PA14]; experiment: Serial dilution assay (MIC); assay type: cell-based; details: read-out: MIC
Method: as §2

[8] = tested on: Staphylococcus aureus [DSM 346]; experiment: Serial dilution assay (MIC); assay type: cell-based; details: DSM346, read-out: MIC
Method: as §2

[9] = tested on: Escherichia coli [DSM 1116]; experiment: Serial dilution assay (MIC); assay type: cell-based; details: DSM1116, read-out: MIC
Method: as §2

[10] = tested on: Rhodotorula glutinis [DSM 10134]; experiment: Serial dilution assay (MIC); assay type: cell-based; details: DSM10134
Method: as §2

[11] = tested on: Bacillus subtilis [DSM 10]; experiment: Serial dilution assay (MIC); assay type: cell-based; details: DSM10, read-out: MIC
Method: as §2

[12] = tested on: Wickerhamomyces anomalus [DSM 6766]; experiment: Serial dilution assay (MIC); assay type: cell-based; details: Hansenula anomala, DSM6766
Method: as §2

[13] = tested on: Candida albicans [DSM 1665]; experiment: Serial dilution assay (MIC); assay type: cell-based; details: DSM1665, read-out: MIC
Method: as §2

[14] = tested on: S. aureus (DSM 1104) biofilm formation; experiment: Biofilm inhibition assay (Crystal Violet staining); assay type: cell-based, Staphylococcus aureus; details: for inhibitory activity on S. aureus biofilm formation (in words): 125–7.8 µg/mL; for Biofilm inhibition (% ± SD): S. aureus (DSM 1104); for Biofilm inhibition (% ± SD) / inhibition at 7.8 µg/mL: 7.8 µg/ml; for inhibition at 7.8 µg/mL / inhibition at 15.62 µg/mL / inhibition at 31.25 µg/mL / inhibition at 62.5 µg/mL / inhibition at 125 µg/mL: Staphylococcus aureus, DSM1104, S. aureus (DSM 1104), read-out: Biofilm inhibition (% ± SD)
Method: The compounds were evaluated for their ability to inhibit S. aureus (DSM 1104) biofilm formation, following the established procedure. Briefly, serially diluted compounds (125–7.8 µg/mL) were co-incubated with S. aureus in 96-well plates in CASO medium supplemented with 4% of glucose (see Supplementary Materials). Biofilm inhibition was assessed by using Crystal Violet staining after […], with microporenic acid A serving as a positive control and methanol as solvent control.
Biofilm inhibition assays were condu cted acco rding to th e methodolo g y previousl y described (Soliga et al., 2021), targeting the inhibition of biofilm formation in Staphylococcus aureus […]
S. aureus were cultured i n LB and CASO medium at 37 °C for 18 h, respect ivel y, in a shaker at 120 rpm after being thawed from a -20 °C stock solution. The culture's optical densit y at 600 nm (OD600) was measured and adjusted to a 0.1 McFarland standard in M63 minimal medium supplemented with necessar y nutrients and CASO medi um with 4% glucose for S. aureus, respectively. Microtiter plates were loaded with 150 µL of the bacterial suspension containing s eriall y diluted test compounds (7.8 -125 µg/m L) and incubated for 24 h at 37 °C. The evaluation of biofilm inhibition was performed by staining the biofilm with 0.1% cr ystal violet (CV). After staining, the plates were washed, and the biofilm dissolved in 95% ethanol. The absorbance of the dissolved biofilm was measured at 530 nm using a plat e reader. Negative control involved methanol (2.5%) while microporenic acid A at a concentration range of 7.8 to 125 µg/mL were used as the positive control for S. aureus (Chepkirui et al., 2018). All experiments were performed three times, and the standard deviation (SD) was maintained at or below 15% for S. aureus .
Differences between sam ples and the control grou p were determined b y a t wo-tailed Student’s t-test. Statistical significan ce was defined as p < 0.01. Anal ysis was carri ed out using GraphPad Prism 9® (GraphPad Software, San Diego, CA, USA). […]

[15] = tested on: human endocervical adenocarcinoma (KB-3.1); experiment: Cytotoxicity assay, KB3.1; assay type: cell-based; details: KB3.1 (endocervical adenocarcinoma), 5 days of incubation
Method: as §1

S. aureus = tested on: S. aureus; design: method as in doi:10.1016/j.phytol.2021.03.003; details: cited from earlier work
[16] = tested on: breast cancer (MCF-7) cell line; experiment: Cytotoxicity assay, MCF-7; assay type: cell-based; details: Homo sapiens, MCF7, 120 h; MCF-7 (breast), 5 days of incubation; read-out: IC50
[17] = tested on: lung cancer (A-549) cell line; experiment: Cytotoxicity assay, A549; assay type: cell-based; details: Homo sapiens, 120 h; A549 (lung), 5 days of incubation; read-out: IC50
Curvularia lunata = tested on: Curvularia lunata; design: method as in doi:10.1016/j.phytol.2021.03.003; details: cited from earlier work

## CCC(C)/C=C(C)/C=C/C(=O)C1=C(O)[C@H]([C@H](O)c2ccc(O)cc2)NC1=O (stereo partly shown) [Compound 2, Prototenellin D]
[1]
  IC50 (µM): weak or no activity
[1]; Mus musculus, L929, 120 h
  IC50: 70.1 µM
[2]
  MIC: > 67 µg/mL
[3]
  MIC: > 67 µg/mL
[4]
  MIC: > 67 µg/mL
[5]
  MIC: > 67 µg/mL
[6]
  MIC: > 67 µg/mL
[7]
  MIC: > 67 µg/mL
[8]
  MIC: > 67 µg/mL
[9]
  MIC: > 67 µg/mL
[10]
  MIC: > 67 µg/mL
[11]
  MIC: > 67 µg/mL
[12]
  MIC: > 67 µg/mL
[13]
  MIC: > 67 µg/mL
[14]
  inhibitory activity on S. aureus biofilm formation (in words): promising activities in a dose-dependent manner
  inhibition at 7.8 µg/mL: 53 ± 7%
  inhibition at 15.62 µg/mL: 56 ± 8%
  inhibition at 31.25 µg/mL: 80 ± 10%
  inhibition at 62.5 µg/mL: 83 ± 9%
  inhibition at 125 µg/mL: 84 ± 17%
[14]; listed as prototenellin D (2)
  Biofilm inhibition (% ± SD): more than 50%
[15]; Homo sapiens, KB 3-1, 120 h
  IC50: 64.7 µM
[15]
  IC50 (µM): weak or no activity

## CCC(C)/C=C(C)/C=C/C(=O)c1c(O)c(-c2ccc(O)cc2)cn(O)c1=O (stereo not shown) [Compound 4, Tenellin]
[1]; Mus musculus, L929, 120 h
  IC50: 0.79 µM
[2]
  MIC: > 67 µg/mL
[3]
  MIC: > 67 µg/mL
[4]
  MIC: 66.6 µg/mL (≈ 180 µM)
[5]
  MIC: > 67 µg/mL
[6]
  MIC: > 67 µg/mL
[7]
  MIC: > 67 µg/mL
[8]
  MIC: 16.6 µg/mL (≈ 44.9 µM)
[9]
  MIC: > 67 µg/mL
[10]
  MIC: > 67 µg/mL
[11]
  MIC: 8.3 µg/mL (≈ 22.5 µM)
[12]
  MIC: > 67 µg/mL
[13]
  MIC: 66.6 µg/mL (≈ 180 µM)
[14]
  inhibitory activity on S. aureus biofilm formation (in words): promising activities in a dose-dependent manner
  inhibition at 7.8 µg/mL: 36 ± 13%
  inhibition at 15.62 µg/mL: 51 ± 19%
  inhibition at 31.25 µg/mL: 73 ± 15%
  inhibition at 62.5 µg/mL: 80 ± 4%
  inhibition at 125 µg/mL: 78 ± 5%
[14]; listed as tenellin (4)
  Biofilm inhibition (% ± SD): ca. 30%
S. aureus
  MIC: 6.25 µg/mL (≈ 16.9 µM)
[16]
  IC50: 2 µM
[17]
  IC50: 0.24 µM
[15]; Homo sapiens, KB 3-1, 120 h
  IC50: 0.79 µM
Curvularia lunata
  MIC: 3.13 µg/mL (≈ 8.47 µM)

## CCC(/C=C(C)/C=C/C(=O)c1c(O)c(-c2ccc(O)cc2)cn(O)c1=O)CO (stereo not shown) [Compound 5, 15-Hydroxytenellin]
[1]
  IC50: 6.8 µM
[1]; Mus musculus, L929, 120 h
  IC50: 4.9 to 6.8 µM
[2]
  MIC: > 67 µg/mL
[3]
  MIC: > 67 µg/mL
[4]
  MIC: > 67 µg/mL
[5]
  MIC: > 67 µg/mL
[6]
  MIC: > 67 µg/mL
[7]
  MIC: > 67 µg/mL
[8]
  MIC: 66.6 µg/mL (≈ 173 µM)
[9]
  MIC: > 67 µg/mL
[10]
  MIC: > 67 µg/mL
[11]
  MIC: 66.6 µg/mL (≈ 173 µM)
[12]
  MIC: > 67 µg/mL
[13]
  MIC: > 67 µg/mL
[14]
  inhibition at 15.62 µg/mL: 47 ± 12%
  inhibition at 31.25 µg/mL: 78 ± 5%
  inhibition at 62.5 µg/mL: 85 ± 2%
  inhibition at 125 µg/mL: 86 ± 1%
[16]
  IC50: 8.1 µM
[17]
  IC50: 2.6 µM
[15]; Homo sapiens, KB 3-1, 120 h
  IC50: 4.9 to 6.8 µM
[15]
  IC50: 6 µM
